Reference: ChEMBL document CHEMBL4673187, “Recent developments of small molecule gamma-secretase modulators for Alzheimer''s disease” (RSC Med Chem, 2020)

Assays:
Gamma-secretase [1] = experiment: Modulation of gamma-secretase in human H4 cells expressing human APP assessed as reduction in amyloid beta42 level incubated for 22 hrs; type: cell-based
[2] = Lipophilicity, logD of the compound; type: physicochemical; conditions: octanol/water
[3] = In vivo modulation of gamma secretase in C57BL/6 mouse assessed as reduction in amyloid beta42 level at 30 mg/kg, po measured at 3 hrs relative to control; type: functional; design: scale not given: the % may be the effect or the level left
[4] = Modulation of gamma secretase in Wistar rat fetal brain-derived neuronal cell incubated for 3 days by ELISA; conditions: 72 h
[5] = In vivo modulation of gamma secretase in transgenic Tg2576 C57BL/6 mouse assessed as reduction in amyloid beta42 level at 30 mg/kg, po administered as single dose measured after 4 hrs by ELISA relative to control; type: functional; design: scale not given: the % may be the effect or the level left
[6] = In vivo modulation of gamma secretase in transgenic Tg2576 C57BL/6 mouse assessed as reduction in amyloid beta42 level at 10 mg/kg, po administered as single dose measured after 4 hrs by ELISA relative to control; type: functional; design: scale not given: the % may be the effect or the level left
[7] = Inhibition of notch signalling (unknown origin); design: species or system Homo sapiens
[8] = In vivo modulation of gamma secretase in C57BL/6 mouse assessed as reduction in amyloid beta42 level at 10 mg/kg, po measured at 3 hrs relative to control; type: functional; design: scale not given: the % may be the effect or the level left
Gamma-secretase [9] = experiment: Modulation of gamma-secretase in human H4 cells expressing human wild type APP751 assessed as increase in amyloid beta38 level incubated for 17 hrs by ELISA; type: cell-based
[10] = In vivo modulation of gamma secretase in CF1 mouse assessed as reduction in amyloid beta42 level at 10 mg/kg, po administered as single dose measured after 4 hrs by ELISA relative to control; type: functional; design: scale not given: the % may be the effect or the level left
Gamma-secretase [11] = experiment: Modulation of gamma-secretase in human H4 cells expressing human wild type APP751 assessed as reduction in amyloid beta42 level incubated for 17 hrs by ELISA; type: cell-based
[12] = In vivo modulation of gamma secretase in CF1 mouse assessed as reduction in brain amyloid beta42 level at 100 mg/kg, po measured after 4 hrs by ELISA relative to control; type: functional; design: scale not given: the % may be the effect or the level left
[13] = In vivo modulation of gamma secretase in CF1 mouse assessed as reduction in brain amyloid beta40 level at 100 mg/kg, po measured after 4 hrs by ELISA relative to control; type: functional; design: scale not given: the % may be the effect or the level left
[14] = In vivo modulation of gamma secretase in CF1 mouse assessed as increase in brain amyloid beta38 level at 100 mg/kg, po measured after 4 hrs by ELISA relative to control; type: functional
[15] = In vivo modulation of gamma secretase in CF1 mouse assessed as increase in plasma amyloid beta38 level at 100 mg/kg, po measured after 4 hrs by ELISA relative to control; type: functional
[16] = Maximum concentration of drug in po dosed CF1 mouse brain and measured at 4 hrs by liquid chromatography and tandem mass spectrometry; type: ADME, organism-based; design: route oral, time 4 hrs
[17] = In vivo modulation of gamma secretase in CF1 mouse assessed as reduction in plasma amyloid beta40 level at 100 mg/kg, po measured after 4 hrs by ELISA relative to control; type: functional; design: scale not given: the % may be the effect or the level left
[18] = In vivo modulation of gamma secretase in transgenic Tg2576 mouse assessed as reduction in insoluble amyloid beta42 level at 60 mg/kg, po administered once daily for 65 days by ELISA relative to control; type: functional; design: scale not given: the % may be the effect or the level left; conditions: time 65 day
[19] = In vivo modulation of gamma secretase in CF1 mouse assessed as reduction in plasma amyloid beta42 level at 100 mg/kg, po measured after 4 hrs by ELISA relative to control; type: functional; design: scale not given: the % may be the effect or the level left
[20] = In vivo modulation of gamma secretase in CF1 mouse assessed as increase in amyloid beta38 level at 10 mg/kg, po administered as single dose measured after 16 hrs by ELISA relative to control; type: functional
[21] = Modulation of gamma-secretase in CHO cells expressing APP V717F assessed as reduction in amyloid beta42 level; type: cell-based; conditions: Cricetulus griseus
[22] = In vivo modulation of gamma secretase in transgenic Tg2576 mouse assessed as reduction in soluble amyloid beta42 level at 60 mg/kg, po administered once daily for 65 days by ELISA relative to control; type: functional; design: scale not given: the % may be the effect or the level left; conditions: time 65 day
[23] = Modulation of gamma-secretase in CHO cells expressing APP V717F assessed as increase in amyloid beta38 level; type: cell-based; conditions: Cricetulus griseus
[24] = Ratio of drug level in CF1 mouse brain to plasma at 3 to 100 mg/kg, po measured after 4 hrs by liquid chromatography and tandem mass spectrometry; type: ADME, organism-based; conditions: dose 3-100 mg/kg, read-out: BPR

Cc1nsc(N2CCC(Nc3nc4c(-c5ccc(F)c(F)c5F)cccn4n3)C(F)(F)C2)n1 (stereo not given)
IC50 (Gamma-secretase [1]): 0.143 µM

COc1cc(-c2nnc3n2CCC[C@@]3(Oc2cc(F)c(F)c(F)c2)C(C)(C)O)ccc1-c1cnc(C)o1
logD [2]: 3.2

COc1cc(-c2nnc3n2CCCC32OCc3c(cccc3C(F)(F)F)N(CC(F)(F)F)C2=O)ccc1-c1cnc(C)o1 (stereo not given)
logD [2]: 2.9

COc1cc(-c2nnc3n2CCCC3(Cc2ccc(F)c(F)c2)C(=O)NCC(F)(F)F)ccc1-c1cnc(C)o1 (stereo not given)
Activity [3]: 4% | logD [2]: 3

COc1cc(-c2nnc3n2CCCC32OCc3c(Cl)cccc3N(CC(F)(F)F)C2=O)ccc1-c1cnc(C)o1 (stereo not given)
logD [2]: 2.8

COc1cc(-c2nnc3n2CCCC3c2ccc(Cl)c(Cl)c2)ccc1-c1cnc(C)o1 (stereo not given)
logD [2]: 3.2

COc1cc(-c2nnc3n2CCCC3(Oc2ccc(F)c(Cl)c2)C(C)(C)O)ccc1-c1cnc(C)o1 (stereo not given)
logD [2]: 3.2

COc1cc(/C=C2\CCCN([C@@H](C)c3ccc(F)cc3)C2=O)ccc1-n1cnc(C)c1
IC50 [4]: 0.093 µM

O=C(O)[C@H](CC1CCC1)c1cc(Cl)c(OCC(F)(F)F)c(-c2ccc(C(F)(F)F)cc2)c1
Activity [5]: 38% | Activity [6]: 22%

COc1cc(-c2nnc3n2CCC[C@]3(Oc2cc(F)c(F)c(F)c2)C(C)(C)O)ccc1-c1cnc(C)o1
IC50 [7]: ≥ 10 µM | Activity [8]: 44% | logD [2]: 3.2

CC1CCN([C@H](c2ccc(F)cc2)c2ccc([C@@H](C)C(=O)O)cc2-c2ccc(C(F)(F)F)cc2)CC1
EC50 (Gamma-secretase [9]): 0.146 µM | Activity [10]: 40% | IC50 (Gamma-secretase [11]): 0.064 µM | Activity [12]: 60% | Activity [13]: 16% | Activity [14]: 98% | Activity [15]: 82% | Cmax [16]: 7.5 µM | Activity [17]: 25% | Activity [18]: 80% | Activity [19]: 45% | Activity [20]: 50% | IC50 [21]: 0.17 µM | Activity [22]: 50% | EC50 [23]: 0.15 µM | Kp at 4 h [24]: 0.8
